Laboratory results from patent publication US12110286B2, “Benzimidazolone derived inhibitors of BCL6” (Cancer Research Technology Limited, priority 2017, dated 2024).

Molecular target: Trx-6×His-BCL6 (human BCL6 BTB domain covering amino-acid sequence 5-129) (Homo sapiens (Human), UniProt P41182)
Assay: HTRF in vitro assay (BCL6 / BCOR-AF633 peptide)
Format: binding
Protocol: The % inhibition at each concentration was calculated by normalising FRET ratio to the appropriate high (DMSO with all reagents) and low (DMSO without BCL6) controls.

[1] = initially generated data, 10 nM Trx-6×His-BCL6, 300 nM BCOR-AF633 peptide, 1 nM anti-6×His-Terbium cryptate
[2] = further generated data, 1 nM Trx-6×His-BCL6, 300 nM BCOR-AF633 peptide, 0.5 nM anti-6×His-Terbium cryptate

Row | Structure (SMILES) | HTRF pIC50 [1] | HTRF pIC50 [2]
1 | COC(=O)C(C)CCn1c(=O)n(C)c2ccc(Nc3cc(C(=O)N(C)C)nc(Cl)c3C#N)cc21 (centres unmarked) [Example 7c, Methyl 4-[6-[[2-chloro-3-cyano-6-(dimethylcarbamoyl)-4-pyridyl]amino]-3-methyl-2-oxo-benzimidazol-1-yl]-2-methyl-butanoate] | 5.57 | –
2 | CN(C)CCNC(=O)c1cc(Nc2ccc3c(c2)n(C)c(=O)n3C)c(C#N)c(Cl)n1 [Example 7d, 6-Chloro-5-cyano-N-[2-(dimethylamino)ethyl]-4-[(1,3-dimethyl-2-oxo-benzimidazol-5-yl)amino]pyridine-2-carboxamide:formic acid (1:1)] | 5.50 | –
3 | CCOC(=O)c1cc(Nc2ccc3c(c2)n(CCC(C)C(=O)OC)c(=O)n3C)n2nccc2n1 (centres unmarked) [Example 8, Ethyl 7-[[3-(4-methoxy-3-methyl-4-oxo-butyl)-1-methyl-2-oxo-benzimidazol-5-yl]amino]pyrazolo[1,5-a]pyrimidine-5-carboxylate] | 5.83 | 6.01
4 | COC(=O)C(O)CCn1c(=O)n(C)c2ccc(Nc3ccnc(Cl)c3C#N)cc21 (centres unmarked) [Example 9, Methyl 4-[6-[(2-chloro-3-cyano-4-pyridyl)amino]-3-methyl-2-oxo-benzimidazol-1-yl]-2-hydroxy-butanoate] | 5.83 | 5.97
5 | Cn1c(=O)n(CC(O)C(C)(C)O)c2cc(Nc3ccnc(Cl)c3C#N)ccc21 (centres unmarked) [Example 10a, 2-Chloro-4-[[3-(2,3-dihydroxy-3-methyl-butyl)-1-methyl-2-oxo-benzimidazol-5-yl]amino]pyridine-3-carbonitrile] | 5.81 | 5.93
6 | COC(=O)C(CCn1c(=O)n(C)c2ccc(Nc3ccnc(Cl)c3C#N)cc21)OC (centres unmarked) [Example 10b] | 5.71 | 5.57
7 | CCOC(CCn1c(=O)n(C)c2ccc(Nc3ccnc(Cl)c3C#N)cc21)C(=O)OC (centres unmarked) [Example 10c] | 5.65 | 5.69
8 | COC(=O)CCCn1c(=O)n(C)c2ccc(Nc3ccnc(Cl)c3C#N)cc21 [Example 10d] | 5.55 | 5.29
9 | COC(=O)C(CCn1c(=O)n(C)c2ccc(Nc3ccnc(Cl)c3C#N)cc21)OCC1CC1 (centres unmarked) [Example 10e] | 5.52 | 5.38
10 | Cn1c(=O)n(CC(O)Cn2cccn2)c2cc(Nc3ccnc(Cl)c3C#N)ccc21 (centres unmarked) [Example 10f] | 5.49 | 5.48
11 | COC(=O)C1CCCC1Cn1c(=O)n(C)c2ccc(Nc3ccnc(Cl)c3C#N)cc21 (centres unmarked) [Example 11, Methyl 2-[[6-[(2-chloro-3-cyano-4-pyridyl)amino]-3-methyl-2-oxo-benzimidazol-1-yl]methyl]cyclopentanecarboxylate] | 5.71 | 5.72
12 | COC(=O)[C@H](N)CCn1c(=O)n(C)c2ccc(Nc3ccnc(Cl)c3C#N)cc21 [Example 12, Methyl (2R)-2-amino-4-[6-[(2-chloro-3-cyano-4-pyridyl)amino]-3-methyl-2-oxo-benzimidazol-1-yl]butanoate] | 5.79 | 5.68
13 | CC(=O)NC(C)CCn1c(=O)n(C)c2ccc(Nc3ccnc(Cl)c3C#N)cc21 (centres unmarked) [Example 13, N-[3-[6-[(2-Chloro-3-cyano-4-pyridyl)amino]-3-methyl-2-oxo-benzimidazol-1-yl]-1-methyl-propyl]acetamide] | 5.75 | –
14 | CCNC(=O)c1cc(Nc2ccc3c(c2)n(CCC(C)(C)O)c(=O)n3C)c(Cl)cn1 [Example 14, 5-Chloro-N-ethyl-4-[[3-(3-hydroxy-3-methyl-butyl)-1-methyl-2-oxo-benzimidazol-5-yl]amino]pyridine-2-carboxamide] | 6.05 | 6.29
15 | CCOC(=O)c1cnn(-c2ncc(Cl)c(Nc3ccc4c(c3)n(CCC(C)(C)O)c(=O)n4C)n2)c1 [Example 15b] | – | 5.96
16 | Cc1cc(C)n(-c2ncc(Cl)c(Nc3ccc4c(c3)n(CCC(C)(O)CCO)c(=O)n4C)n2)n1 (centres unmarked) [Example 15e] | – | 6.02
17 | CCC(C)(O)CCn1c(=O)n(C)c2ccc(Nc3nc(-n4nc(C)cc4C)ncc3Cl)cc21 (centres unmarked) [Example 15f] | – | 6.00
18 | CN(C)c1ncc(Cl)c(Nc2ccc3c(c2)n(CCC(C)(C)O)c(=O)n3C)n1 [Example 15g] | – | 5.89
19 | Cc1cc(C)n(-c2ncc(Cl)c(Nc3ccc4c(c3)[nH]c(=O)n4C)n2)n1 [Example 15h] | – | 5.86
20 | COCC(C)(O)CCn1c(=O)n(C)c2ccc(Nc3nc(-n4nc(C)cc4C)ncc3Cl)cc21 (centres unmarked) [Example 15j] | – | 5.76
21 | CN(C)C(=O)C1CCN(c2ncc(Cl)c(Nc3ccc4c(c3)n(CCC(C)(O)CCO)c(=O)n4C)n2)CC1 (centres unmarked) [Example 15k] | – | 6.27
22 | Cn1c(=O)n(CCC(C)(C)O)c2cc(Nc3nc(-n4cccn4)ncc3Cl)ccc21 [Example 15m] | – | 6.08
23 | Cc1cc(C)n(-c2cc(Nc3ccc4c(c3)n(CCC(C)(C)O)c(=O)n4C)c(C#N)cn2)n1 [Example 15o] | – | 5.88

Row | Structure (SMILES) | HTRF pIC50 [1] | HTRF pIC50 [2]
24 | Cc1cc(C)n(-c2nc(C)c(Cl)c(Nc3ccc4c(c3)n(CCC(C)(C)O)c(=O)n4C)n2)n1 [Example 15p] | – | 5.82
25 | Cc1cc(C)n(-c2ncc(Br)c(Nc3ccc4c(c3)n(CCC(C)(C)O)c(=O)n4C)n2)n1 [Example 15q] | – | 6.09
26 | Cc1ccn(-c2ncc(Cl)c(Nc3ccc4c(c3)n(CCC(C)(C)O)c(=O)n4C)n2)n1 [Example 16a, 5-((5-chloro-2-(3-methyl-1H-pyrazol-1-yl)pyrimidin-4-yl)amino)-3-(3-hydroxy-3-methylbutyl)-1-methyl-1,3-dihydro-2H-benzo[d]imidazol-2-one] | – | 6.38
27 | Cc1ccnn1-c1ncc(Cl)c(Nc2ccc3c(c2)n(CCC(C)(C)O)c(=O)n3C)n1 [Example 16b, 5-((5-chloro-2-(5-methyl-1H-pyrazol-1-yl)pyrimidin-4-yl)amino)-3-(3-hydroxy-3-methylbutyl)-1-methyl-1,3-dihydro-2H-benzo[d]imidazol-2-one] | – | 6.31
28 | Cn1c(=O)n(CCC2(O)CCC2)c2cc(Nc3ccnc(Cl)c3C#N)ccc21 [Example 18a, 2-chloro-4-((3-(2-(1-hydroxycyclobutyl)ethyl)-1-methyl-2-oxo-2,3-dihydro-1H-benzo[d]imidazol-5-yl)amino)nicotinonitrile] | – | 5.90
29 | Cn1c(=O)n(CCS(C)(=O)=O)c2cc(Nc3ccnc(Cl)c3C#N)ccc21 [Example 18b, 2-chloro-4-((1-methyl-3-(2-(methylsulfonyl)ethyl)-2-oxo-2,3-dihydro-1H-benzo[d]imidazol-5-yl)amino)nicotinonitrile] | – | 5.31
30 | CCC(=O)CCn1c(=O)n(C)c2ccc(Nc3ccnc(Cl)c3C#N)cc21 [Example 19a, 2-chloro-4-((1-methyl-2-oxo-3-(3-oxopentyl)-2,3-dihydro-1H-benzo[d]imidazol-5-yl)amino)nicotinonitrile] | – | 5.83
31 | CC1OCCC1Cn1c(=O)n(C)c2ccc(Nc3ccnc(Cl)c3C#N)cc21 (centres unmarked) [Example 19b] | – | 5.55
32 | Cn1c(=O)n(CCC2(C)OCCO2)c2cc(Nc3ccnc(Cl)c3C#N)ccc21 [Example 19c] | – | 5.45
33 | Cn1c(=O)n(CC2CCN2C(=O)OC(C)(C)C)c2cc(Nc3ccnc(Cl)c3C#N)ccc21 (centres unmarked) [Example 19d] | – | 5.44
34 | CN1CC(Cn2c(=O)n(C)c3ccc(Nc4nc(N5CC(C)(C)OC(C)(C)C5)ncc4Cl)cc32)(C(C)(C)O)OC1=O (centres unmarked) [Example 20b] | – | 6.01
35 | Cn1c(=O)n(CCC(C)(C)O)c2cc(Nc3nc(N4CCCCC4)ncc3Cl)ccc21 [Example 20d] | – | 5.92
36 | CC(C)Nc1ncc(Cl)c(Nc2ccc3c(c2)n(CCC(C)(C)O)c(=O)n3C)n1 [Example 20f] | – | 5.99
37 | CCN(C)c1ncc(Cl)c(Nc2ccc3c(c2)n(CCC(C)(C)O)c(=O)n3C)n1 [Example 20i] | – | 6.17
38 | C[C@@H]1CN(c2ncc(Cl)c(Nc3ccc4c(c3)n(CCC(C)(C)O)c(=O)n4C)n2)C[C@H](C)O1 [Example 20j] | – | 6.80
39 | Cn1c(=O)n(CCC(C)(C)O)c2cc(Nc3nc(N4CC(C(F)(F)F)OC(C)(C)C4)ncc3Cl)ccc21 (centres unmarked) [Example 20k] | – | 6.11
40 | CCC1(Cn2c(=O)n(C)c3ccc(Nc4nc(N5C[C@@H](C)O[C@@H](C)C5)ncc4Cl)cc32)CN(C)C(=O)O1 (some centres unmarked) [Example 20l] | – | 6.39
41 | CCC1(Cn2c(=O)n(C)c3ccc(Nc4nc(-n5ccc(C(F)(F)F)n5)ncc4Cl)cc32)CN(C)C(=O)O1 (centres unmarked) [Example 20m] | – | 5.97
42 | CCC1(Cn2c(=O)n(C)c3ccc(Nc4nc(N5C[C@@H](C)O[C@@H](C)C5)ncc4Cl)cc32)CNC(=O)O1 (some centres unmarked) [Example 20n] | – | 6.42
43 | CCC1(Cn2c(=O)n(C)c3ccc(Nc4nc(-n5ccc(C(F)(F)F)n5)ncc4Cl)cc32)CNC(=O)O1 (centres unmarked) [Example 20o] | – | 6.22
44 | C[C@@H]1CN(c2ncc(Cl)c(Nc3cc4c(cc3F)n(C)c(=O)n4CCC(C)(C)O)n2)C[C@H](C)O1 [Example 20p] | – | 6.44
45 | C[C@@H]1C[C@H](C)CN(c2ncc(Cl)c(Nc3cc4c(cc3F)n(C)c(=O)n4CCC(C)(C)O)n2)C1.O=CO [Example 20q] | – | 5.87
